Tests used:
Conditions in all cases: human; call rule not given here
Hepatotoxicity [1] = test: FDA HLAED, serum glutamic oxaloacetic transaminase (SGOT) increase
Hepatotoxicity [2] = test: FDA HLAED, liver enzyme composite activity
Hepatotoxicity [3] = test: FDA HLAED, alkaline phosphatase increase
Hepatotoxicity [4] = test: FDA HLAED, gamma-glutamyl transferase (GGT) increase
Hepatotoxicity [5] = test: FDA HLAED, serum glutamic pyruvic transaminase (SGPT) increase
Hepatotoxicity [6] = test: FDA HLAED, lactate dehydrogenase (LDH) increase
Throughout, for GGT Increase - Index Value: reference of the scale not given here.
Throughout, for LDH Increase - Index Value: reference of the scale not given here.

Compound	SGOT Increase - Activity Score (Hepatotoxicity [1])	SGOT Increase - Index Value (Hepatotoxicity [1])	SGOT Increase - Number of Reports (Hepatotoxicity [1])	Composite Activity - Active (Hepatotoxicity [2])	Composite Activity - Marginal (Hepatotoxicity [2])	Composite Activity - Score (Hepatotoxicity [2])	Alkaline Phosphatase Increase - Activity Score (Hepatotoxicity [3])	Alkaline Phosphatase Increase - Index Value (Hepatotoxicity [3])	Alkaline Phosphatase Increase - Number of Reports (Hepatotoxicity [3])	GGT Increase - Activity Score (Hepatotoxicity [4])	GGT Increase - Index Value (Hepatotoxicity [4])	GGT Increase - Number of Reports (Hepatotoxicity [4])	SGPT Increase - Activity Score (Hepatotoxicity [5])	SGPT Increase - Index Value (Hepatotoxicity [5])	SGPT Increase - Number of Reports (Hepatotoxicity [5])	LDH Increase - Activity Score (Hepatotoxicity [6])	LDH Increase - Index Value (Hepatotoxicity [6])	LDH Increase - Number of Reports (Hepatotoxicity [6])
COc1ccc(C(=O)Nc2ccccc2CCC2CCCCN2C)cc1 (stereo unspecified) [ENCAINIDE]	Active	12.4	>= 4	3	1	Active	Marginally Active	3.6	>= 4	Inactive	0	< 4	Active	7.7	>= 4	Active	4.1	>= 4
CCn1cc(C(=O)O)c(=O)c2cc(F)c(N3CCNCC3)nc21 [ENOXACIN]	Inactive	0	< 4	0	0	Inactive	Inactive	0	< 4	Inactive	0	< 4	Inactive	0	< 4	Inactive	0	< 4
CCCCC[C@H](O)/C=C/[C@@H]1[C@H]2C/C(=C/CCCC(=O)O)O[C@H]2C[C@H]1O [EPOPROSTENOL]	Inactive	0	< 4	0	0	Inactive	Inactive	0	< 4	Inactive	0	< 4	Inactive	0	< 4	Inactive	0	< 4
COC(=O)CCc1ccc(OCC(O)CNC(C)C)cc1 (stereo unspecified) [ESMOLOL]	Inactive	4.6	< 4	0	0	Inactive	Inactive	0	< 4	Inactive	0	< 4	Inactive	0	< 4	Inactive	4.6	< 4
Clc1ccc2c(c1)C(c1ccccc1)=NCc1nncn1-2 [ESTAZOLAM]	Inactive	0.8	< 4	0	0	Inactive	Inactive	0	< 4	Inactive	0.8	< 4	Inactive	0.8	< 4	Inactive	0	< 4
C[C@]12CC[C@@H]3c4ccc(OC(=O)c5ccccc5)cc4CC[C@H]3[C@@H]1CC[C@@H]2O [ESTRADIOL BENZOATE]	Inactive	2.8	>= 4	0	0	Inactive	Inactive	1.5	>= 4	Inactive	0.3	< 4	Inactive	2.1	>= 4	Inactive	1.2	>= 4
C[C@]12CC[C@@H]3c4ccc(O)cc4CC[C@H]3[C@@H]1CC[C@@H]2OC(=O)CCC1CCCC1 [ESTRADIOL CYPIONATE]	Inactive	2.8	>= 4	0	0	Inactive	Inactive	1.5	>= 4	Inactive	0.3	< 4	Inactive	2.1	>= 4	Inactive	1.2	>= 4
CCC(=O)Oc1ccc2c(c1)CC[C@@H]1[C@@H]2CC[C@]2(C)[C@@H](OC(=O)CC)CC[C@@H]12 [ESTRADIOL DIPROPIONATE]	Inactive	2.8	>= 4	0	0	Inactive	Inactive	1.5	>= 4	Inactive	0.3	< 4	Inactive	2.1	>= 4	Inactive	1.2	>= 4
CCCCCCC(=O)O[C@H]1CC[C@H]2[C@@H]3CCc4cc(O)ccc4[C@H]3CC[C@]12C [ESTRADIOL ENANTHATE]	Inactive	2.8	>= 4	0	0	Inactive	Inactive	1.5	>= 4	Inactive	0.3	< 4	Inactive	2.1	>= 4	Inactive	1.2	>= 4
C[C@]12CC[C@@H]3c4ccc(OC(=O)Cc5ccc(N(CCCl)CCCl)cc5)cc4CC[C@H]3[C@@H]1CC[C@@H]2OC(=O)Cc1ccc(N(CCCl)CCCl)cc1 [ESTRADIOL MUSTARD]	Inactive	0	< 4	0	0	Inactive	Inactive	0	< 4	Inactive	0	< 4	Inactive	0	< 4	Inactive	0	< 4
CCCCCCCCCCC(=O)O[C@H]1CC[C@H]2[C@@H]3CCc4cc(O)ccc4[C@H]3CC[C@]12C [ESTRADIOL UNDECYLATE]	Inactive	2.8	>= 4	0	0	Inactive	Inactive	1.5	>= 4	Inactive	0.3	< 4	Inactive	2.1	>= 4	Inactive	1.2	>= 4
CCCCC(=O)O[C@H]1CC[C@H]2[C@@H]3CCc4cc(O)ccc4[C@H]3CC[C@]12C [ESTRADIOL VALERATE]	Inactive	2.8	>= 4	0	0	Inactive	Inactive	1.5	>= 4	Inactive	0.3	< 4	Inactive	2.1	>= 4	Inactive	1.2	>= 4

— ChEMBL document CHEMBL1697781, “Assessment of the health effects of chemicals in humans: II. Construction of an adverse effects database for QSAR modeling” (Curr Drug Discov Technol, 2004)
